From US20160235710A1, “COMPOSITION FOR TREATING OR PREVENTING ERECTILE DYSFUNCTION COMPRISING LDD175 AS ACTIVE INGREDIENT” (ANYGEN, INC., priority 2015, published 2016)
Where “and” joins values, the source holds several entries; their conditions need not be identical. Identical values can stand only once. Like-named read-outs stand apart in the source and are kept apart here.

Tests used:
[1] = tested on: rabbit corporal smooth muscle (CSM) strip; test: Organ bath relaxation of phenylephrine-pre-contracted rabbit corpus cavernosal strips; parameters: species or system New Zealand white rabbits; details: for relaxation, % of the phenylephrine (PE)-induced contraction: concentration-response; for % relaxation of the phenylephrine-induced contraction: synergy experiment
Excerpt: Sexually mature male New Zealand white rabbits (3.0±0.3 kg) were killed with an air embolism in the ear vein. The entire penis was then surgically excised, and then cleaned by removing the […] and urethra. Then, the corporal tissue was carefully dissected from the surrounding tunica. Four corpus cavernosal strips with approximately equal sizes (2×2×10 mm) were obtained from each penis.
Rabbit corpus cavernosal strips were separately prepared for organ-bath studies. Each corporal strip was mounted in a 10 ml-organ chamber filled with Krebs buffer (composition in mmol/l: 118.4 NaCl, 4.7 KCl, 2.5 CaCl2, 1.2 KH2PO4, 1.2 MgSO4, 24.9 NaHCO3, and 11.1 D-glucose), with one end fixed to a tissue holder and the other secured to a force transducer. The force transducer was connected to an appropriately calibrated four-channel polygraph (Power-Lab; AD Instruments, Sydney, NSW, Australia), in which the transducer output was recorded. The corpus cavernosal strips were kept in the organ bath with Krebs solution maintained at 36.5° C. by a thermo-regulated water circuit and by continuously bubbling with a mixture of 95% O2 and 5% CO2. Each corporal strip was stretched to an optimal isometric tension of 1.0 g and was equilibrated for 60 min. During the equilibration, the tissues were washed with fresh Krebs solution every 15 min, and the tension was adjusted if necessary.
The vasodilatory effect of LDD175 was studied by cumulative addition of the sample at concentrations ranging from 10^−7 to 10^−4 M to endothelium-intact strips and endothelium-denuded strips after pre-contraction with 10^−5 M phenylephrine (PE). The endothelial lining of the corpus cavernosum was removed by rubbing the strip between the thumb and index finger for 20 seconds and soaking the same in 0.3% solution of 3[(3-cholamidopropyl)-dimethylammonio]-l-propanesulphonate (CHAPS) for 10 seconds. It was confirmed whether the endothelium was functionally completely removed for all strips by pre-contracting the strips with 10^−5 M […] PE and then adding acetylcholine (10^−6 M) thereto. […] After the addition of IbTX, LDD175 was added to strips pre-contracted with PE. The relaxation effect of the PDE5 inhibitor (udenafil, 10^−6 and 10^−5 M) was also separately measured in the same manner, and compared to that of LDD175. The synergistic relaxation effect between 10^−5 M LDD175 and 10^−6 M udenafil was also investigated.

BKCa channel = target: T1, BKCa channel (Homo sapiens, UniProt Q12791); test: Whole-cell patch-clamp recording of BKCa currents in cultured human CSM cells; type: cell-based; details: for activation of outward rectifying K+ currents (whole-cell), increase vs. control: at +60 mV
T1 construct: Homogeneous explant cell cultures of human corporal smooth muscle (CSM) cells were prepared; endogenous in cells; host or cells: primary explant cultures of human corporal smooth muscle (CSM) cells from erectile dysfunction patients
T1 sequence (Q12791 whole entry): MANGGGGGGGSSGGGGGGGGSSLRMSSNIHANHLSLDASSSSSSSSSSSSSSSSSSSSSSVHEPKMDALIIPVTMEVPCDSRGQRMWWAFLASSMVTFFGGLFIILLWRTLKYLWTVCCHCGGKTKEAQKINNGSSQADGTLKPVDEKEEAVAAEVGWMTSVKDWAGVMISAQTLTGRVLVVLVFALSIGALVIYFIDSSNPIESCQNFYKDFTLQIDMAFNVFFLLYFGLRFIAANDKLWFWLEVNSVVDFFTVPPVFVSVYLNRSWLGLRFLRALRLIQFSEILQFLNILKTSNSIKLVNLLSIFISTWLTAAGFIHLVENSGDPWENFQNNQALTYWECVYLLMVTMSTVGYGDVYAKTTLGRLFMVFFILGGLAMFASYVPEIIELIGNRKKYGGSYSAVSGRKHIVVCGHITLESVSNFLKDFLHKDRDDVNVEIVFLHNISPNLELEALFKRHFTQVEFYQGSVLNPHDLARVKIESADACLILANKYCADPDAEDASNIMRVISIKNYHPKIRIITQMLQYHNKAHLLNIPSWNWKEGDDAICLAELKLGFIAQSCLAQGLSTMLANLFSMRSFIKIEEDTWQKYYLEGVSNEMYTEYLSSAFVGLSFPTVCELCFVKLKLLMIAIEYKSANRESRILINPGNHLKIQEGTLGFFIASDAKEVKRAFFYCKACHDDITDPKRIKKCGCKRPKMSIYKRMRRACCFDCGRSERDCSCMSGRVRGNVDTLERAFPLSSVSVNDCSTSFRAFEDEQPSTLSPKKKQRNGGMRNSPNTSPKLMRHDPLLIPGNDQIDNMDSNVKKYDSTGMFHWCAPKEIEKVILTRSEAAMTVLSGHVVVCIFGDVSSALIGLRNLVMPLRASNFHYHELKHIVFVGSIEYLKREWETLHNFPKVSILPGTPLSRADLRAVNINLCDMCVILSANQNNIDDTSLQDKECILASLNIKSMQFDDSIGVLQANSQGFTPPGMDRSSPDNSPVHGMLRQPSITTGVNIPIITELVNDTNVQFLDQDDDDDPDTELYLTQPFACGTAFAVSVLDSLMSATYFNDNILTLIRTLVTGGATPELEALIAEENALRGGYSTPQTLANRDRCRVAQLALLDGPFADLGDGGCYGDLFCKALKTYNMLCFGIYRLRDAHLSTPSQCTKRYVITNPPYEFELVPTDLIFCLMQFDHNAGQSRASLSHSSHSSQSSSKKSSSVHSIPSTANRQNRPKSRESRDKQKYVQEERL
Procedure: Human corporal tissues were obtained from the corpus cavernosa of patients with organic erectile dysfunction undergoing implantation of penile prostheses. Homogeneous explant cell cultures of human corporal smooth muscle (CSM) cells were prepared as follows (Palmer et al., 1994; Sung et al., 2011). Radial sections of approximately 3×3×10 mm were excised from the mid-penile shafts of the respective resected sample. These samples were tissues including smooth muscles, endothelium, and connective tissues, with occasional nerve fibers. The tissues were washed, cut into 1-2 mm pieces, and placed in tissue culture dishes filled with Dulbecco's modified Eagle's medium (DMEM, Gibco, Carlsbad, Calif., USA) supplemented with 10% fetal bovine serum and antibiotics (100 units/mL penicillin, streptomycin; Gibco), under 5% O2 and 5% CO2. After the explants were attached to the substrate (usually 1-2 days), additional medium was added. The smooth muscle cells were observed migrating from the explants, and underwent division. The cells were subsequently detached via a trypsin/EDTA protocol to establish secondary cultures from the explants. These cultures were morphologically homogeneous. The cobblestone morphology, which is the characteristic of endothelial cells, and the flattened and spread-out shape, which is the characteristic of fibroblasts, were not observed. Cellular homogeneity was further verified by observing smooth muscle-specific α-actin and myosin immuno-responsiveness. While the cultures were maintained for four or more passages, all measured pharmacological and molecular properties were evaluated in the intact tissues that were maintained in the cultures, for example, cyclic adenosine monophosphate formation (Palmer et al., 1994), calcium mobilization (Zhao and Christ, 1995), expression or function of the gap junction protein, connexin (Brink et al., 1996), and K+ channel activity (Lee et al., 1999).
The Ca^2+-activated potassium channel (BKCa) was measured by using the conventional whole-cell patch-clamp technique (Sung et al., 2011). Patch electrodes were made from borosilicate glass capillary tubing (World Precision Instruments, Sarasota, Fla., USA), and had 2.5-5 MO resistance. The cell suspension was placed into a small chamber (0.6 ml) on the stage of an inverted microscope (TMD Diaphot, Nikon, Tokyo, Japan). The membrane currents in smooth muscle cells were recorded using a patch clamp amplifier (Axopatch-1 D, Axon Instruments, Foster City, Calif., USA). The liquid junction potential between the pipette solution and the bath solution was only about 3 mV, and thus uncorrected. In each experiment, whole-cell configuration was not achieved until the seal resistance became larger than 5 GO. The pCLAMP software (Axon Instruments) and Digidata-1322A (Axon Instruments) were used for data acquisition and application of command pulses. Membrane currents were measured during ramping, and filtered at 5 kHz (−3 dB frequency). The current signals were filtered at 5 kHz, digitized, and analyzed on a personal computer using pCLAMP and Origin software (Microcal Software, Northampton, Mass., USA). The standard bath solution was prepared to contain 135 mmol NaCl, 5 mmol KCl, 10 mmol HEPES, 1.8 mmol CaCl2, 1 mmol MgCl2, and 5 mmol glucose, per liter, at pH 7.4 adjusted with NaOH. The pipette (internal) solution was prepared to contain, per liter, 140 mmol KCl, 10 mmol HEPES, 5 mmol K2ATP, 2 mmol MgCl2, 5 mmol ethyleneglycol-bis-[2-aminoethyl ether]-N,N′-tetraacetic acid (EGTA), and 0.5 mmol GTP, at pH 7.2 adjusted with KOH. The Ca^2+-free concentration in the pipette solution was adjusted to 3.15 nM by adding an appropriate amount of CaCl2, determined using the Max Chelator Sliders software (C. Patton, Stanford University).

[2] = tested on: erectile function of rats; test: In vivo cavernous nerve stimulation model, erectile response; parameters: species or system Sprague-Dawley rats
Procedure: (§1) The erectile response was measured using Sprague-Dawley rats. The detailed methodology of measuring the erectile response has been described previously (Rehman et al., 1997). The 8-10 wk aged rats were anesthetized with intramuscular injection of Zoletil 100 mg/kg (Virbac, Carros, France), and placed on a thermally regulated surgical table. Systemic arterial blood pressure (ABP) was monitored via carotid artery cannulation (polyethylene-50 tubing). The prostate and bladder were exposed through a midline abdominal incision. The major pelvic ganglion, pelvic nerves, and cavernous nerve were identified as posterolateral to the prostate on each side. An electric stimulator with stainless steel bipolar hook electrodes was placed around the cavernous nerve for electrical stimulation. To monitor intracavernosal pressure (ICP), a 25-gauge cannula was filled with […], connected to polyethylene-50 tubing, and inserted into one side of the crura. Systemic arterial blood pressure (ABP) and intracavernosal pressure (ICP) were measured with a transducer connected to a PowerLab® (AD Instruments, Colorado Spring, Colo., USA), which is a computerized system for data acquisition. Real-time display and documentation of pressure were conducted with Chart™ 6 software. Sub-maximal electrical field stimulation (EFS) was used with 1 V, 2 Hz, 5 ms pulse width, and duration of 60 seconds. Sub-maximal electrical field stimulation was applied 10 min after a series of control (buffer solution alone), LDD175 (10 mg/kg), and udenafil (1 mg/kg) injections. At the end of sub-maximal stimulation, the full response was measured using the EFS of 6 V, 10 Hz, 5 ms pulse width, with duration of 60 seconds. Buffer solution, LDD175, and udenafil were administered at intervals of 30 min. The ratio of maximal ICP to mean arterial BP at the peak of the erectile response was calculated in order to control for variations in ABP.

[3] = tested on: rat model with diabetic erectile dysfunction; test: Diabetic erectile dysfunction rat model (streptozotocin), intracavernosal pressure; type: in vivo, Sprague-Dawley rats; details: for maximal ICP/ABP ratio: 5 V
Procedure: as §1
The 8-wk aged male Sprague-Dawley rats were administered with an intraperitoneal injection of streptozotocin (65 mg/kg body weight) dissolved in 5 mM citric acid buffer (pH 4.5), thereby inducing insulin dependent diabetes mellitus (IDDM). Rats of the normal control were injected with only 5 mM citric acid buffer (pH 4.5) by the same method. On day 2 of breeding, the rats were fasted for 16 hours, and the blood was collected from the tail vein to conduct the blood glucose test. Only rats with a blood glucose level of 250 mg/de or higher were selected for a diabetes induced group.

BP and heart rate = details: cited from earlier work
aortic rings of rats = details: cited from earlier work
[4] = sub-maximal EFS, intravenous LDD175 10 mg/kg, n=8

Compound: O=C(O)c1ccc(Cl)c2c1[nH]c1c3ccc(C(F)(F)F)cc3oc12 [LDD175, 4-chloro-7-trifluoromethyl-10H-benzo[4,5]furo[3,2-b]indole-1-carboxylic acid]
- relaxation response ([1]; 10^−4 M LDD175, denuded endothelium, n=10): 41.0±4.9%
- relaxation response ([1]; 10^−4 M LDD175, intact endothelium, n=7): 45.9±6.2%
- relaxation response after IbTX pretreatment ([1]; 10^−4 M LDD175, strips pre-treated with 100 nM IbTX for 30 minutes, n=7): 23.6±3.3%
- relaxation, % of the phenylephrine (PE)-induced contraction ([1]; 10^−4 M): 54.0±3.0% and 54.0±3.1%
- % relaxation of the phenylephrine-induced contraction ([1]; 10^−5 M alone, n=7): 32.7±3.8%
- relaxation, % of the phenylephrine (PE)-induced contraction ([1]; 10^−5 M): 26.3±2.0%
- relaxation, % of the phenylephrine (PE)-induced contraction ([1]; 10^−6 M): 14.5±2.6%
- relaxation, % of the phenylephrine (PE)-induced contraction ([1]; 10^−7 M): 3.7±1.4%
- peak current density (BKCa channel; 0.1 μM, +60 mV, n=10): 30.9±6.5 pA/pF
- peak current density (BKCa channel; 1 μM, +60 mV, n=10): 45.1±8.2 pA/pF
- peak current density (BKCa channel; 10 μM, +60 mV, n=10): 178.5±30.0 pA/pF
- peak current density (BKCa channel; 30 μM, +60 mV, n=10): 257.3±48.3 pA/pF
- activation of outward rectifying K+ currents (whole-cell), increase vs. control (BKCa channel; 30 μM): 952.1%
- peak current density (BKCa channel; 30 μM, −40 mV): 23.9±5.8 pA/pF
- peak current density, fold vs. control (BKCa channel; 30 μM, −40 mV): 42.8 fold
- peak current density (BKCa channel; 100 μM, +60 mV, n=10): 265.5±53.4 pA/pF
- BP fluctuation and hemodynamical instability ([2]; during in vivo cavernous nerve stimulation): not observed
- area under curve (AUC) of ICP/ABP ratio [2, 4]: 1444.4±133.3
- maximal ICP [2, 4]: 57.8±6.6 mmHg
- maximal ICP/ABP ratio [2, 4]: 45.3±5.8%
- intracavernosal pressure ([3]; LDD175 5 mg/kg and 10 mg/kg injection groups, 10 mg/kg more effective than 5 mg/kg): significantly increased
- effect of LDD175 on intracavernosal pressure after BKCa channel inhibitor ([3]; TEA 30 mg/kg injected, after 10 minutes LDD175 10 mg/kg): completely inhibited
- BP and heart rate changes following intravenous administration (BP and heart rate; 10 mg/kg LDD175, intravenous): did not cause significant changes
- adverse cardiovascular effects in in vivo animal experiments (BP and heart rate; rat, in vivo): no significant adverse cardiovascular effects
- relaxation of aortic rings (aortic rings of rats): not relaxed

Compound: O=c1[nH]c2cc(C(F)(F)F)ccc2n1-c1cc(C(F)(F)F)ccc1O [NS1619, reference compound]
- activation of outward rectifying K+ currents (whole-cell), increase vs. control (BKCa channel; 30 μM): 880.0%
- peak current density (BKCa channel; 30 μM, −40 mV): 1.5±0.6 pA/pF
- peak current density, fold vs. control (BKCa channel; 30 μM, −40 mV): 1.3 fold

Compound: CC[N+](CC)(CC)CC [TEA, tetraethylammonium, reference compound]
- suppression of LDD175-activated K+ currents (BKCa channel): 78.2%

Compound: CCCc1nn(C)c2c(=O)[nH]c(-c3cc(S(=O)(=O)N4CCN(C)CC4)ccc3OCC)nc12 [sildenafil]
- maximal ICP/ABP ratio ([3]; 1 mg/kg, n=6): 55.4±5.2
- maximal ICP/ABP ratio ([3]; 5 mg/kg, n=7): 69.9±5.4

Compound: CCCOc1ccc(S(=O)(=O)NCCC2CCCN2C)cc1-c1nc2c(CCC)nn(C)c2c(=O)[nH]1 (stereo not drawn) [udenafil, reference compound]
- relaxation, % of the phenylephrine (PE)-induced contraction ([1]; 10^−5 M): 67.1±1.7%
- % relaxation of the phenylephrine-induced contraction ([1]; 10^−6 M alone, n=7): 21.6±2.7%
- relaxation, % of the phenylephrine (PE)-induced contraction ([1]; 10^−6 M): 34.5±3.9%
- effect on maximal ICP, maximal ICP/ABP ratio and AUC of ICP/ABP ratio compared with 10 mg/kg LDD175 ([2]; 1 mg/kg udenafil, sub-maximal EFS): no difference

Compound: iberiotoxin (QFTDVDCSVSKECWSVCKDLFGVDRGKCMGKKCRCYQ; UniProt P24663 1-37, looked up) [IbTX, reference compound]
- suppression of LDD175-activated K+ currents (BKCa channel; 100 nM IbTX, n=4): 78.1%
